In ChEMBL document CHEMBL1149800, “Synthesis, physicochemical properties and antimicrobial evaluation of new (E)-chalcones” (Eur J Med Chem, 2008) one finds MIC data, which are given here for 26 compounds.

In brackets after ≈: the same amount, converted by molar mass.

Experiment [1] has as its system Nannizzia gypsea. Kind of experiment: Antifungal activity against Microsporum gypseum after 3 to 7 days. It counts as functional.
Experiment [2] has as its system Staphylococcus aureus. Kind of experiment: Antibacterial activity against Staphylococcus aureus 209P FDA after 18 hrs by hole-plate agar diffusion method. It counts as functional. For orientation: Agar diffusion results depend on both activity and mobility in agar.
Experiment [3] concerns Bacillus subtilis. Kind of experiment: Antibacterial activity against Bacillus subtilis ATCC 1633 after 18 hrs by hole-plate agar diffusion method. It counts as functional. Conditions: ATCC 1633, 18 h.
For experiment [4], the system named is Enterococcus faecalis. Description: Antibacterial activity against Enterococcus faecalis after 18 hrs by hole-plate agar diffusion method. Type of experiment: functional.
In experiment [5] the test system is Candida albicans. Description: Antifungal activity against Candida albicans PCM 1409 PZH after 3 to 7 days. Type of experiment: functional, organism-based.
For experiment [6], the system named is Escherichia coli. Description: Antibacterial activity against Escherichia coli PZH 026 B6 after 18 hrs by hole-plate agar diffusion method. Type of experiment: functional.

As for `CC1CCN(CCCCCCOc2ccc(/C=C/C(=O)c3ccccc3)cc2)CC1`, the MIC in experiment [1] was found to be 123 µM (≈ 49.9 µg/mL); in experiment [2], 25 µM (≈ 10.1 µg/mL); in experiment [3] it was 19 µM (≈ 7.71 µg/mL); in experiment [4] it was 25 µM (≈ 10.1 µg/mL).
Regarding `O=C(/C=C/c1ccc(OCCCCN2CCOCC2)cc1)c1ccccc1`, it took 274 µM (≈ 100 µg/mL) to inhibit growth in experiment [1] (MIC).
Same read-out and setting: for `O=C(/C=C/c1ccc(OCCCCCN2CCOCC2)cc1)c1ccccc1` the value was 264 µM (≈ 100 µg/mL).
As to `O=C(/C=C/c1ccc(OCCCCCCN2CCOCC2)cc1)c1ccccc1`, in experiment [1], the minimal inhibitory concentration (MIC) stood at 254 µM (≈ 100 µg/mL).
On the same count and under the same terms, for `O=C(/C=C/c1ccc(SCCCCCN2CCOCC2)cc1)c1ccccc1` the value was 189 µM (≈ 74.8 µg/mL); for `O=C(/C=C/c1ccc(SCCCCCCN2CCOCC2)cc1)c1ccccc1`, < 244 µM; for `O=C(/C=C/c1ccc(OCCCCCBr)cc1)c1ccccc1`, 268 µM (≈ 100 µg/mL).
Turning to `O=C(/C=C/c1ccc(OCCCCN2CCCCC2)cc1)c1ccccc1`, the minimal inhibitory concentration (MIC) in experiment [2], in experiment [3] and in experiment [4] was 275 µM (≈ 100 µg/mL) in each case.
`O=C(/C=C/c1ccc(SCCCCCN2CCCCC2)cc1)c1ccccc1`: the MIC came to 254 µM (≈ 100 µg/mL) in experiment [1]; 254 µM (≈ 100 µg/mL) in experiment [2]; 254 µM (≈ 100 µg/mL) in experiment [3]; 127 µM (≈ 50 µg/mL) in experiment [5]; 254 µM (≈ 100 µg/mL) in experiment [4]; 254 µM (≈ 100 µg/mL) in experiment [6].
`O=C(/C=C/c1ccc(OCCCCCN2CCCCC2)cc1)c1ccccc1`: the minimum inhibitory concentration (MIC) in experiment [2], in experiment [3] and in experiment [4] was 265 µM (≈ 100 µg/mL) in each case.
For the compound `CC1CCN(CCCCOc2ccc(/C=C/C(=O)c3ccccc3)cc2)CC1`, the minimum inhibitory concentration (MIC) worked out at 265 µM (≈ 100 µg/mL) in experiment [1], 133 µM (≈ 50.2 µg/mL) in experiment [2], 265 µM (≈ 100 µg/mL) in experiment [3] and 265 µM (≈ 100 µg/mL) in experiment [4].
As to `CC1CCN(CCCCCOc2ccc(/C=C/C(=O)c3ccccc3)cc2)CC1`, the MIC in experiment [1] came out at 256 µM (≈ 100 µg/mL); in experiment [2] it was 19 µM (≈ 7.44 µg/mL); in experiment [3], 128 µM (≈ 50.1 µg/mL); in experiment [4] it was 26 µM (≈ 10.2 µg/mL).
On the same counts, the results for `O=C(/C=C/c1ccc(OCCCCCCN2CCCCC2)cc1)c1ccccc1` are < 256 µM, 256 µM (≈ 100 µg/mL), 256 µM (≈ 100 µg/mL) and 256 µM (≈ 100 µg/mL).
As for `O=C(/C=C/c1ccc(OCCCCCCCCCCN2CCCCC2)cc1)c1ccccc1`, the minimum inhibitory concentration (MIC) in experiment [2] amounted to 21 µM (≈ 9.4 µg/mL); in experiment [3], 209 µM (≈ 93.6 µg/mL); in experiment [4], 209 µM (≈ 93.6 µg/mL).
Compound `O=C(/C=C/c1ccc(SCCCCBr)cc1)c1ccccc1` returned a minimal inhibitory concentration (MIC) in experiment [2] of 267 µM (≈ 100 µg/mL).
`O=C(/C=C/c1ccc(SCCCCCCN2CCCCC2)cc1)c1ccccc1`: the minimum inhibitory concentration (MIC) in experiment [1] is < 246 µM; in experiment [2], 25 µM (≈ 10.2 µg/mL); in experiment [3], 25 µM (≈ 10.2 µg/mL); in experiment [5], < 246 µM; in experiment [4], 25 µM (≈ 10.2 µg/mL).
As for `O=C(/C=C/c1ccc(SCCCCCCCCCCN2CCCCC2)cc1)c1ccccc1`, the MIC in experiment [1] and in experiment [2] was 216 µM (≈ 100 µg/mL) throughout.
For `O=C(/C=C/c1ccc(SCCCCCBr)cc1)c1ccccc1`, the MIC in experiment [1] came to 193 µM (≈ 75.1 µg/mL).
In the case of `O=C(/C=C/c1ccc(SCCCCN2CCCCC2)cc1)c1ccccc1`, the MIC was determined as 264 µM (≈ 100 µg/mL) in experiment [1], 26 µM (≈ 9.87 µg/mL) in experiment [2], 26 µM (≈ 9.87 µg/mL) in experiment [3] and 264 µM (≈ 100 µg/mL) in experiment [4].
Regarding `CC1CCN(CCCCSc2ccc(/C=C/C(=O)c3ccccc3)cc2)CC1`, the MIC was 191 µM (≈ 75.2 µg/mL) in experiment [1], 25 µM (≈ 9.84 µg/mL) in experiment [2], 254 µM (≈ 100 µg/mL) in experiment [3] and 254 µM (≈ 100 µg/mL) in experiment [4].
For `CC1CCN(CCCCCSc2ccc(/C=C/C(=O)c3ccccc3)cc2)CC1`, the MIC in experiment [1] was determined as 184 µM (≈ 75 µg/mL); in experiment [2], 18 µM (≈ 7.34 µg/mL); in experiment [3], 25 µM (≈ 10.2 µg/mL); in experiment [5] it was 184 µM (≈ 75 µg/mL); in experiment [4] it was 25 µM (≈ 10.2 µg/mL).
Consider `CC1CCN(CCCCCCSc2ccc(/C=C/C(=O)c3ccccc3)cc2)CC1`, for which the MIC in experiment [1] is < 237 µM; in experiment [2], 24 µM (≈ 10.1 µg/mL); in experiment [3], 18 µM (≈ 7.59 µg/mL); in experiment [5], < 237 µM; in experiment [4], 24 µM (≈ 10.1 µg/mL).
Take `O=C(/C=C/c1ccc(SCCCCCCN2CCNCC2)cc1)c1ccccc1`: the minimum inhibitory concentration (MIC) in experiment [2] and in experiment [4] was 245 µM (≈ 100 µg/mL) throughout.
On to `O=C(/C=C/c1ccc(SCCCCN2CCNCC2)cc1)c1ccccc1`, for which the minimal inhibitory concentration (MIC) in experiment [2], in experiment [3] and in experiment [4] was 263 µM (≈ 100 µg/mL) in each case.
Consider `C[C@@H]1[C@H](O)[C@@H](C)/C=C/C=C/C=C/C=C/C=C/C=C/C=C/[C@H](O[C@@H]2O[C@H](C)[C@@H](O)[C@H](N)[C@@H]2O)C[C@@H]2O[C@](O)(C[C@@H](O)C[C@@H](O)[C@H](O)CC[C@@H](O)C[C@@H](O)CC(=O)O[C@H]1C)C[C@H](O)[C@H]2C(=O)O` [AMPHOTERICIN B], for which the results for the MIC in experiment [1] and in experiment [5] were 11 µM (≈ 10.2 µg/mL) and 0.5 µM (≈ 0.462 µg/mL), respectively.
For the compound `O=C(N[C@H](CO)[C@H](O)c1ccc([N+](=O)[O-])cc1)C(Cl)Cl` [CHLORAMPHENICOL], the MIC in experiment [2], in experiment [3], in experiment [4] and in experiment [6] was 15 µM (≈ 4.85 µg/mL) throughout.

The term MIC denotes the smallest concentration in the dilution series that meets the test's criterion for growth inhibition. Read a low MIC as greater potency.
